Data published in paper PMC8145596, “Novel Chemically Modified Curcumin (CMC) Derivatives Inhibit Tyrosinase Activity and Melanin Synthesis in B16F10 Mouse Melanoma Cells” (Biomolecules, 2021).

Experiments:
[1] = Copper chelating assay (pyrocatechol violet)
Description: Copper chelation can be detected by a PV colorimetric assay as reported in other studies and similar to the method reported in our previous study. Briefly, 100 µL aliquots of different concentrations of compounds prepared in 50 mM sodium acetate buffer (pH 6.0) were added to a 96-well plate. The control group consisted of buffer only, while KA at 500 µM served as a positive control. Copper sulfate (2 mM; 10 µL) was added to each of the samples and incubated for 10 min. Next, 10 µL of 2 mM PV was added and the plate was further incubated for 20 min. The absorbance was read at 632 nm using a microplate reader; a lower absorbance compared to that of the buffer control was indicative of copper chelation.

[2] = system: breast cancer cells; parameters: method as in PMID 31505772; conditions: cited from earlier work
[3] = MTS cell viability assay; format: cell-based, mouse; conditions: mouse, B16F10 mouse melanoma cells, 48 h, B16F10
Description: B16F10 mouse melanoma cells (CRL-6475™) were obtained from American Type Culture Collection (ATCC, Manassas, VA, USA) and cultured using Dulbecco’s Modified Eagle Medium (DMEM) supplemented with 10% heat-inactivated fetal bovine serum (HI-FBS) and 1% antibiotics (penicillin-streptomycin) in a humidified incubator with 95% air—5% CO2 at 37 °C. In order to test the four CMCs (CMC2.14, CMC2.24, CMC2.5 and CMC2.23) to that of PC, for their effects on melanin content, we first screened them for cytotoxicity using a tetrazolium assay with MTS (Promega CellTiter Aqueous One). Briefly, B16F10 cells were seeded at 4 × 10^3 cells/well in a 96-well plate for 24 h. The compounds were diluted using culture medium to yield a final DMSO in all groups of 0.16% and added to the cell monolayers in wells after 24 h. Control was treated with 0.16% DMSO. At the end of 48 h, the medium was aspirated and replaced by 100 μL of fresh medium. 20 μL of MTS reagent was then added, and the plate was incubated at 37 °C for 40 min. At this point, the absorbance of 100 μL aliquots was read at 490 nm using a microplate reader. Cell viability was calculated from the absorbance values relative to control groups and expressed in %.

[4] = system: MNT-1 human melanoma cells; assay: MTS cytotoxicity assay in MNT-1 cells; format: cell-based; conditions: 20 µM, 48 h
Description: II. Experiments in MNT-1 human melanoma cells
MNT-1 cells (kindly provided by Dr. Michael Marks, University of Pennsylvania) were cultured using DMEM supplemented with 1 % MEM (minimum essential medium), 18 % HI-FBS, 10 % AIM-V medium (Gibco) and 1 % antibiotic mixture.
MNT-1 human melanoma cells (2 × 10^4 cells/ well) were seeded in a 96-well plate and cultured for 96 h. After this, the test compounds were added in complete medium and cultures were maintained for 48 h, followed by conducting the MTS assay to detect cytotoxicity similar to methods reports in main text. The results were expressed as % normalized to untreated control group.
MNT-1 human melanoma cells were seeded at 2.2 × 10^5 cells/well in 12-well plates and incubated for 24 hours. […] Briefly, the absorbance of melanin was measured at 475 nm and was normalized to the total protein contents and reported as relative melanin levels as a % of control.
Figure S3: Viability of MNT-1 cells treated with A) PC, CMC2.14 and CMC2.5 and B) CMC2.23 and CMC2.24 for a duration of 48 h evaluated by MTS assay; Data for A)-B) are mean ± SD of 3-4 determinations; C) Melanin content in cultures of MNT-1 cells treated for 48 h with different concentrations of PC and CMCs, Data are mean ± SD of values combined from two independent experiments. * p < 0.05 vs. control (Ctrl); One-way ANOVA with Tukey’s […]

Question: For “1,7-bis(4-hydroxy-3-methoxyphenyl)-1,6-heptadien-3,5-dione [PC, reference compound]”, which “effect on copper chelation” value [1] is on record?
Answer: The value was “did not show any effect on copper chelation”.

Question: What about the “concentrations highly cytotoxic to breast cancer cells” value [2] of the same molecule?
Answer: The value was greater than 10 µM.

Question: What does the source list for COC(=O)/C(C(=O)/C=C/c1ccc(O)cc1)=C(O)\C=C\c1ccc(O)cc1 [CMC2.14]?
Answer: viability at 48 h, 20 µM ([3]; 20 µM): 72.2%; viability at 48 h, 25 µM ([3]; 25 µM): 55.5%

Question: With O=C(/C=C/c1ccc(O)cc1)/C(C(=O)Nc1ccccc1)=C(O)/C=C/c1ccc(O)cc1 [CMC2.24] as the molecule, how does the copper chelating activity ([1]; 20 µM, compared to the control) read?
Answer: The copper chelating activity was 11.86%.

Question: What about the “cytotoxicity in MNT-1 cells” value [4] of the same molecule?
Answer: The value was “nontoxic”.
